# Read-outs that look alike come from different tables or passages of the source.
# Tests used:
# MCF-10A cells = assay: Antiproliferative assay in vitro (SRB); format: cell-based, human; conditions: read-out: Average IC50 ± SD, MCF-10A line
# Procedure: (§1) Antiproliferative tests were performed on a normal human breast cell line, MCF-10A, and a mouse embryonic fibroblast: Balb/3T3. Both cell lines were obtained from the American Type Culture Collection (Rockville, MD, USA). The cell lines were maintained in the Institute of Immunology and Experimental Therapy, Wroclaw, Poland. MCF-10A cells were cultured in the F-12 nutrient mixture (Gibco, Scotland, UK), supplemented with 5% horse serum (Gibco, Scotland, UK), […] (Vibrio cholerae Pacini), 10 μg/mL of hydrocortisone and 20 ng/mL of human epidermal growth factor (all from Sigma-Aldrich, Chemie GmbH, Steinheim, Germany). Balb/3T3 cells were cultured in Dulbecco medium (Gibco, Darmstadt, Germany) supplemented with 10% fetal bovine serum (Thermo Fisher Scientific, Waltham, MA, USA) and 2 mM l-glutamine (Sigma-Aldrich, St. Louis, MO, USA). All culture media contained antibiotics: 100 U/mL penicillin (Sigma-Aldrich, St. Louis, MO, USA) and 100 µg/mL streptomycin (Polfa-Tarchomin, Warsaw, Poland). Both cell lines were cultured during the entire experiment in a humid atmosphere at 37 °C and 5% CO2. Amistar 250 SC (fungicide) with active compound azoxystrobin was provided by the Institute of Soil Science and Plant Cultivation, National Research Institute in Pulawy, Department of Weed Science and Tillage Systems in Wroclaw, Poland […].
# (§2) Twenty-four hours prior to the applications of the tested compounds, MCF-10A and Balb/3T3 cells were plated in 96-well plates at a density of 10^4 cells per well and cultured at 37 °C in a humid atmosphere saturated with 5% CO2 for 24 h. Stock solutions of the compounds were prepared ex tempore for each test by dissolving in DMSO. The cells were also exposed to the reference drugs: cis-platin (Accord, London, UK) (10–0.01 µg/mL) and DMSO (Sigma-Aldrich) (at the concentrations corresponding to those in the tested agent dilutions). The solutions were then diluted in culture medium RPMI 1640 + Opti-MEM (1:1) (both from Gibco, Scotland, UK), supplemented with 2 mM l-glutamine, 5% fetal bovine serum (all from Sigma-Aldrich Chemie GmbH, Steinheim, Germany). An assay was performed after 72 h of exposure to the tested compounds 13, 17, 18, 19, 25, 27, 30, 4-hba, 4-hbah, and 3,4,5-hba (0.5, 5.0, 50, and to 500 µM) and azoxystrobin fungicide (0.05, 0.5, 5.0 and 50 µM). The antiproliferative effect in vitro was determined by the SRB method (sulforhodamine B colorimetric assay). The optical densities of the samples were measured on the Synergy H4 photometer (BioTek Instruments, Winooski, VT, USA) at 540 nm. The results were calculated as 50% inhibitory concentration (IC50), namely the dose of the tested compound inhibiting proliferation of the tested cells by 50% as compared to the untreated control cells, in the Prolab-3 system based on Cheburator 0.4 software using the two-point method. Each test was repeated 3–5 times.
# (§3) Cytotoxicity was performed on two normal cell lines: MCF -10A and Balb/3T3, using as controls cis-platin in the concentrations of 0.03 32, 0.3 32, 3.32 and 33.2 µM and azoxystrobin fungicide in the […]
# (§4) were tested in the concentrations of 0.5, 5.0, 50, and 500 µM. The relation of compound concentration […]
# (§5) Further, a comparison of the influence of each tested concentration in the group of tested compounds on cell lines was illustrated in Figure S130 a (MCF-10A) and b (Balb/T3T).
# (§6) Table S4. Cytotoxicity results for compounds 13, 17, 18, 19, 25, 27, and 30 investigated on normal mammalian lines: MCF -10A and B alb/3T3 using Azoxystrobin (fungicide) and cis-platin as reference compounds.
# (§7) Cytotoxicity profile presented as proliferation inhibition, % (y -axis) in the function of compound concentration, […]
# (§8) Structure MCF-10A Balb/3T3
# (§9) Proliferation inhibition [%] […]
# Balb/3T3 cells = assay: Antiproliferative assay in vitro (SRB); format: cell-based, mouse; conditions: read-out: Average IC50 ± SD, Balb/3T3 line
# Procedure: as §1, §2, §3, §4, §5, §6, §7, §8, §9
# S. sclerotiorum = conditions: cited from earlier work
# [1] = test system: Cerrena unicolor strain no. 139; assay: In vitro antifungal activity, mycelial growth inhibition on PDA medium; format: cell-based; conditions: Cerrena unicolor, NO.139; screening at basal 50 µg/mL, PDA medium, mean ± SD of three determinations; read-out: fungal growth inhibition, C. unicolor
# Procedure: (§10) The cultures of Botrytis cinerea strain FBc05 and Sclerotinia sclerotiorum strain FSc10 were obtained from the collection of the Division of Plant Pathology and Mycology at the Department of Plant Protection of Wroclaw University of Environmental and Life Sciences (Poland). Cerrena unicolor (Bull.ex.Fr.) Murr, strain no. 139, originated from the culture collection of the Department of Biochemistry, University of Lublin (Poland). The stock cultures were maintained on potato dextrose agar at +4 °C and periodically transferred to a fresh medium.
# (§11) Prior to the fungicidal activity assay of hydrazide–hydrazones 1–35, we considered ethanol and DMSO as potential dissolution media for tested compounds. […] Furthermore, a very important aspect of biological testing is the careful selection of organic solvents. These are typically used, e.g., methanol, ethanol, acetone, and DMSO, and may be highly toxic for microorganisms in even very low concentrations, such as 1% (v/v). Ethanol and DMSO with a final concentration between 0.1 and 1.0% (v/v) in a PDA medium were used and applied to evaluate the inhibition growth of B. cinerea, S. sclerotiorum, and C. unicolor (see Supplementary Materials). The following procedure was applied to the microorganism testing. The assays of fungi inhibition growth were performed at a basal concentration of 50 µg/mL for all compounds, and detailed experiments were extended for testing between 0 and 50 µg/mL (0, 6.25, 12.5, 25.0, and 50.0 µg/mL) for selected compounds. The tests were carried out on Petri dishes (diameter 60 mm) with PDA medium containing appropriate compound, co-solvent control, and hydrazide–hydrazone dissolved in co-solvent assay. A piece of mycelium with a 5 mm edge taken from the outer edge of the growing fungi on the PDA plate with co-solvent was transferred to a central part of the PDA plate with the examined compound. The plates thus inoculated were incubated at 22 °C in the dark for a time when the control plate containing only the co-solvent was covered entirely with the tested microorganism. For B. cinerea and S. sclerotiorum, the test took 3 days, and for C. unicolor, it took 7 days. Each assay was performed at least in triplicate. […] Model parameters c and e were estimated using the nonlinear least-squares method. Parameters d and b (with two exceptions) were fixed and assumed to be equal. Based on estimated parameters, the values of IC50 were determined. […] The IC50 values were calculated only in cases when the model predicted a decrease in growth rate by more than 50%.
# (§12) In vitro antifungal activity
# (§13) Prior to the fungicidal activity assay of hydrazide-hydrazones 1–35, we considered ethanol (EtOH) and DMSO as potential dissolution media for tested compounds.
# (§14) EtOH and DMSO with a final concentration between 0.1–1.0% (v/v) in a PDA medium were applied to evaluate the inhibition growth of B. cinerea, S. sclerotiorum, and C. unicolor (see Table S3). The following procedure was applied to the microorganism testing with the hydrazide-hydrazones. The assays of fungi inhibition growth were performed at a basal concentration of 50 µg/mL for all compounds, and detailed experiments were extended for testing selected molecules 18, 19, 27, […]
# (§15) Table S2. In vitro antifungal activity for DMSO and ethanol co-solvents.
# [2] = test system: Sclerotinia sclerotiorum strain FSc10; assay: as above; format: cell-based; conditions: screening at basal 50 µg/mL, PDA medium, mean ± SD of three determinations
# Procedure: as §10, §11, §12, §13, §14, §15
# [3] = test system: Botrytis cinerea strain FBc05; assay: as above; format: cell-based; conditions: Botrytis cinerea, FBC05; screening at basal 50 µg/mL, PDA medium, mean ± SD of three determinations; read-out: fungal growth inhibition, B. cinerea
# Procedure: as §10, §11, §12, §13, §14, §15
# MPO (myeloperoxidase) = biological target: MPO (myeloperoxidase); parameters: method as in PMID 32278712; conditions: cited from earlier work
# hepatitis C virus (HCV) = test system: hepatitis C virus (HCV); parameters: method as in PMID 26695731; conditions: read-out: EC50 against HCV; cited from earlier work
# Mahlavu line = test system: Mahlavu line; parameters: method as in PMID 26695731; conditions: cited from earlier work
# B. cinerea [4] = conditions: cited from earlier work
# Candida = test system: Candida; parameters: method as in PMID 23142671; conditions: cited from earlier work
# Rhizopus oryzae = test system: Rhizopus oryzae; parameters: method as in PMID 24582134; conditions: cited from earlier work
# [5] = test system: Fusarium oxysporum Schltdl.; parameters: method as in PMID 24582134; conditions: cited from earlier work
# B. cinerea [6] = test system: B. cinerea; parameters: method as in PMID 24582134; conditions: cited from earlier work
# [7] = test system: Alternaria alternata (Fr.) Keissl; parameters: method as in PMID 24582134; conditions: cited from earlier work
# [8] = test system: acetylcholinesterase (AChE); parameters: method as in PMID 33668452; conditions: cited from earlier work
compound,measurement,setting,value
"N.N.[Cl][Pt][Cl] [Cis-platin, reference compound]",IC50,"MCF-10A cells; 72 h exposure, SRB method",9.27 ± 1.63 µM
same,IC50,"Balb/3T3 cells; 72 h exposure, SRB method",9.8 ± 1.93 µM
"Cn1cc(C(=O)N/N=C/c2cc3ccccc3[nH]2)c(=O)c2ccccc21 [(E)-N′-((1H-indol-2-yl)methylene)-1-methyl-4-oxo-1,4-dihydroquinoline-3-carbohydrazide]",S. sclerotiorum growth inhibition,S. sclerotiorum,more than 80%
"COc1cc(/C=N/NC(=O)c2ccc(O)cc2)c(O)c(CO)c1 [compound 26, 4-Hydroxy-N′-[(E)-(2-hydroxy-3-hydroxymethyl-5-methoxyphenyl)methylidene]benzohydrazide]",melting point,,219 to 220 °C
same,inhibition of growth at 50 µg/mL,[1],54.6 ± 3.1%
same,"fungal growth inhibition, S. sclerotiorum",[2],n.o.
same,inhibition of growth at 50 µg/mL,[3],3.2 ± 0.5%
O=C(N/N=C/c1cc(O)ccc1O)c1ccncc1 [X],IC50,MPO (myeloperoxidase),4.8 µM
O=C(NN=Cc1ccccn1)c1cc(-c2ccc(F)cc2F)ccc1O [XI],EC50,hepatitis C virus (HCV),3.9 µM
same,EC50,Mahlavu line,4.74 µM
"CC1N[C@H](C(=O)NN=Cc2ccc(C(C)(C)C)cc2)Cc2c1[nH]c1ccccc21 (stereo partly drawn) [N′-(4-tert-butyl-benzylidene)-(3S)-1-methyl-2,3,4,9-tetra-hydro-1H-pyrido [3,4-b]indole-3-carbohydrazide]",growth inhibition of B. cinerea,B. cinerea [4],more than 80%
same,growth inhibition of S. sclerotiorum,S. sclerotiorum,more than 80%
"O=C(O)c1cc(O)c(O)c(O)c1 [3,4,5-hba, gallic acid, reference compound]",IC50,"MCF-10A cells; Homo sapiens, MCF-10A, 72 h",174 ± 14.3 µM
same,IC50,"Balb/3T3 cells; Mus musculus, BALB/3T3, 72 h",163 ± 1.95 µM
O=C(N/N=C/c1ccc(O)cc1O)c1ccccc1 [compound 22],melting point,,255 to 256 °C (dec.)
same,inhibition of growth at 50 µg/mL,[1],75.4 ± 6.2%
same,"fungal growth inhibition, S. sclerotiorum",[2],n.o.
same,inhibition of growth at 50 µg/mL,[3],32 ± 2.9%
"Cc1ccc(C(=O)ON=C2C=CC(=NNC(=O)c3ccccc3)C=C2)cc1 [N′-(4-{[(4-methylbenzoyl)oxy]imino}cyclohexa-2,5-dien-1-ylidene)benzohydrazide]","restriction of mycelium growth, B. cinerea",B. cinerea [4],35%
"CC1N[C@H](C(=O)NN=Cc2ccc(Cl)c(Cl)c2)Cc2c1[nH]c1ccccc21 (stereo partly drawn) [N′-(3,4-dichloro-benzylidene)-(3S)-1-methyl-2,3,4,9-tetrahydro-1H-pyrido[3,4-b]indole-3-carbohydrazide]",growth inhibition of B. cinerea,B. cinerea [4],more than 80%
same,growth inhibition of S. sclerotiorum,S. sclerotiorum,more than 80%
"CC(=O)N1CCN(c2ccc(OCC3COC(Cn4ccnc4)(c4ccc(Cl)cc4Cl)O3)cc2)CC1 (centres unmarked) [ketoconazole, reference compound]","MIC, anticandidal activity",Candida,1 to 31 µg/mL
Cc1ccc(C(C)C)c(O)c1 [thymol],"MIC (minimum inhibitory concentration), Rhizopus oryzae",Rhizopus oryzae,450 µg/mL
same,"MIC (minimum inhibitory concentration), Fusarium oxysporum",[5],300 µg/mL
same,"MIC (minimum inhibitory concentration), B. cinerea",B. cinerea [6],300 µg/mL
same,"MIC (minimum inhibitory concentration), Alternaria alternata",[7],400 µg/mL
O=C(N/N=C/c1ccccc1O)c1ccc(C(F)(F)F)cc1 [IX],BuChE/AChE selectivity,[8],18.6
"CO/C=C(/C(=O)OC)c1ccccc1Oc1cc(Oc2ccccc2C#N)ncn1 [Azoxystrobin, reference compound]",IC50,"Balb/3T3 cells; 72 h exposure, SRB method",0.1 ± 0.03 µM
O=C(N/N=C/c1cc(O)c(O)cc1O)c1ccc(O)cc1 [compound 23],melting point,,253 °C (dec.)
same,inhibition of growth at 50 µg/mL,[1],5.8 ± 2.7%
same,inhibition of growth at 50 µg/mL,"[2]; Sclerotinia sclerotiorum, FSC10, read-out: fungal growth inhibition, S. sclerotiorum",2.7 ± 0.4%
same,inhibition of growth at 50 µg/mL,[3],6.8 ± 2.5%
"COc1ccc(/C=N/NC(=O)c2cn(C)c3ccccc3c2=O)cc1OC [(E)-N′-(3,4-dimethoxybenzylidene)-1-methyl-4-oxo-1,4-dihydroquinoline-3-carbohydrazide]",S. sclerotiorum growth inhibition,S. sclerotiorum,more than 80%
"O=C(NN=Cc1cn(-c2ccccc2Cl)nn1)c1ccccc1 [((1-(2-chlorophenyl)-1H-1,2,3-triazol-4-yl)methylene)benzohydrazide]",activity against S. sclerotiorum,S. sclerotiorum; 25 µg/mL,inactive
"COc1ccc2c3c1O[C@H]1C[C@@H](O)C=C[C@@]31CCN(C)C2 [galantamine, reference compound]",BuChE/AChE selectivity,[8],1.8
